Assay results as given in PubChem BioAssay (NCI).
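These data come from cells grown in 96-well plates and exposed to compound for 48 hours at five concentrations. Definition used: TGI = concentration required for complete inhibition of growth.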

Assays:
Experiment in all cases: NCI-60 cell line screen, 48 h
786-0 renal = test system: 786-0 renal
A498 renal = test system: A498 renal
A549 NSCLC = test system: A549 NSCLC
ACHN renal = test system: ACHN renal
CAKI-1 renal = test system: CAKI-1 renal
CCRF-CEM leukemia = test system: CCRF-CEM leukemia
COLO 205 colon = test system: COLO 205 colon
DLD-1 colon = test system: DLD-1 colon
DMS 114 small cell lung = test system: DMS 114 small cell lung
DMS 273 small cell lung = test system: DMS 273 small cell lung
EKVX NSCLC = test system: EKVX NSCLC
HCT-116 colon = test system: HCT-116 colon
HCT-15 colon = test system: HCT-15 colon
HL-60(TB) leukemia = test system: HL-60(TB) leukemia
HOP-62 NSCLC = test system: HOP-62 NSCLC
HOP-92 NSCLC = test system: HOP-92 NSCLC
IGROV1 ovarian = test system: IGROV1 ovarian
K-562 leukemia = test system: K-562 leukemia
KM12 colon = test system: KM12 colon
KM20L2 colon = test system: KM20L2 colon
LOX IMVI melanoma = test system: LOX IMVI melanoma
M14 melanoma = test system: M14 melanoma
M19-MEL melanoma = test system: M19-MEL melanoma
MOLT-4 leukemia = test system: MOLT-4 leukemia
NCI-H23 lung = test system: NCI-H23 lung
NCI-H460 lung = test system: NCI-H460 lung
NCI-H522 lung = test system: NCI-H522 lung
OVCAR-3 ovarian = test system: OVCAR-3 ovarian
OVCAR-4 ovarian = test system: OVCAR-4 ovarian
OVCAR-8 ovarian = test system: OVCAR-8 ovarian
RPMI-8226 leukemia = test system: RPMI-8226 leukemia
RXF 393 renal = test system: RXF 393 renal
RXF-631 renal = test system: RXF-631 renal
SF-268 CNS = test system: SF-268 CNS
SF-295 CNS = test system: SF-295 CNS
SF-539 CNS = test system: SF-539 CNS
SK-MEL-2 melanoma = test system: SK-MEL-2 melanoma
SK-MEL-28 melanoma = test system: SK-MEL-28 melanoma
SK-MEL-5 melanoma = test system: SK-MEL-5 melanoma
SK-OV-3 ovarian = test system: SK-OV-3 ovarian
SN12C renal = test system: SN12C renal
SNB-19 CNS = test system: SNB-19 CNS
SNB-75 CNS = test system: SNB-75 CNS
SNB-78 CNS = test system: SNB-78 CNS
SR leukemia = test system: SR leukemia
SW-620 colon = test system: SW-620 colon
TK-10 renal = test system: TK-10 renal
U251 CNS = test system: U251 CNS
UACC-257 melanoma = test system: UACC-257 melanoma
UACC-62 melanoma = test system: UACC-62 melanoma
UO-31 renal = test system: UO-31 renal
XF 498 CNS = test system: XF 498 CNS

Measured: TGI

Cc1ccc(SC(CCC(Sc2ccc(C)cc2)Sc2ccc(C)cc2)Sc2ccc(C)cc2)cc1
> 100 µM: all assays above
